Read-outs that look alike come from different tables or passages of the source.
Experiments:
[1] = tested on: EBC-1 lung cancer cell line; assay: High-throughput screening, CellTiter-Glo cell viability assay at 100 nM; type: cell-based, human; conditions: compounds at 100 nM, 72 h, read-out: cytotoxicity expressed in IC50, EBC-1 (results of High throughput screening)
Procedure: (§1) EBC-1 (obtained from JRCB, https://cellbank.nibiohn.go.jp/english/) and H2228 (obtained from ATCC https://www.lgcstandards-atcc.org/) cell lines were maintained according to the instructions provided by JRCB and ATCC in a 5% CO2 humidified incubator maintained at 37° C. temperature. Effect of compounds on cell viability was measured via CellTiter-Glo® luminescent cell viability assay (Promega, Madison, WI, USA). Cells were plated at 1000 cells/well onto a flat-bottomed, white 96 well plate (BRANDplates, cat. no.: 781965). After 24 h, cells were treated for 72 h with the compounds at 100 nM concentration. After the treatment, medium was removed and CellTiter-Glo® reagent was added. Untreated cells were used as control. The luminescence signal was recorded using a microplate reader (BioTek Synergy 2 Multi-Mode Reader, BioTek, Winooski, VT, USA). Cell viability data (% of untreated control cells) was evaluated with Microsoft Excel.

[2] = tested on: H2228 lung cancer cell line; assay: as above; type: cell-based, human; conditions: compounds at 100 nM, 72 h, read-out: cytotoxicity expressed in IC50, H2228 (results of High throughput screening)
Procedure: as §1

[3] = tested on: PANC-1 (human pancreatic carcinoma) cells; assay: Impedance-based viability assay (xCELLigence SP), long treatment; type: cell-based; conditions: 72 h, read-out: cytotoxicity expressed in IC50, PANC-1
From the text: (Gibco®/Invitrogen Corporation, New York, NY, USA).
Data obtained from each experiment represent mathematical averages.

[4] = tested on: A2058 (human metastatic melanoma) cells; assay: Colorimetric alamarBlue assay, long treatment; conditions: read-out: cytotoxicity expressed in IC50, A-2058
[5] = tested on: COLO-205 (human colorectal adenocarcinoma) cells; assay: Colorimetric alamarBlue assay, long treatment; conditions: COLO 205, 72 h, read-out: cytotoxicity expressed in IC50, COLO-205

Row | Molecule | IC50 ([1]; Homo sapiens, EBC-1, HTS) | IC50 ([2]; Homo sapiens, NCI-H2228, HTS) | IC50 [3] | IC50 ([4]; Homo sapiens, A2058, 72 h) | IC50 [5] | IC50 ([4]; alamarBlue, 72 h) | IC50 ([1]; HTS) | IC50 ([2]; HTS)
1 | Nc1ccc(CN2CCC3=C(C2)C(=O)N(Cc2ccc(F)cc2)C2=NCCN23)cc1 [I/86] | > 0.1 µM | > 0.1 µM | 25 µM |  |  |  |  | 
2 | [N-]=[N+]=Nc1cccc(CN2CCC3=C(C2)C(=O)N(Cc2ccc(C(F)(F)F)c(F)c2)C2=NCCN23)c1 [I/112] | < 0.1 µM | < 0.1 µM | 0.1 µM | 25 µM |  |  |  | 
3 | O=C1C2=C(CCN(Cc3ccccc3)C2)N2CCN=C2N1Cc1ccc([N+](=O)[O-])cc1F [I/48] | > 0.1 µM | > 0.1 µM | 6.16 µM | 0.5 µM | 25 µM |  |  | 
4 | Cc1ccccc1CN1C(=O)C2=C(CCN(Cc3ccc(F)c(F)c3F)C2)N2CCN=C12 [I/10] |  |  | > 10 µM | > 10 µM | > 10 µM |  |  | 
5 | Nc1ccc(CN2CCC3=C(C2)C(=O)N(Cc2ccc(I)cc2)C2=NCCN23)cc1 [I/87] | > 0.1 µM | > 0.1 µM | 16 µM |  |  |  |  | 
6 | Nc1ccc(CN2CCC3=C(C2)C(=O)N(Cc2ccc(C(F)(F)F)cc2)C2=NCCN23)cc1 [I/81] | > 0.1 µM | > 0.1 µM | 21 µM |  |  |  |  | 
7 | Nc1ccc(CN2C(=O)C3=C(CCN(Cc4cccc(F)c4)C3)N3CCN=C23)cc1 [I/84] | > 0.1 µM | > 0.1 µM | 23 µM |  |  |  |  | 
8 | NCc1cccc(CN2C(=O)C3=C(CCN(Cc4ccc(C(F)(F)F)c(F)c4)C3)N3CCN=C23)c1 [I/73] |  |  | > 10 µM | > 10 µM | > 10 µM |  |  | 
9 | Cc1ccccc1CN1C(=O)C2=C(CCN(Cc3ccc(C(F)(F)F)c(F)c3)C2)N2CCN=C12 [I/43] | > 0.1 µM | > 0.1 µM | > 10 µM | > 10 µM | > 10 µM |  |  | 
10 | O=C1C2=C(CCN(Cc3ccccc3)C2)N2CCN=C2N1Cc1ccccc1F [I/2, reference compound] | > 0.1 µM | > 0.1 µM | 4.18 µM | 2.95 µM | 9.97 µM |  |  | 
11 | NCc1cccc(CN2C(=O)C3=C(CCN(Cc4ccc(C(F)(F)F)cc4)C3)N3CCN=C23)c1 [I/68] | > 0.1 µM | > 0.1 µM | > 10 µM | > 10 µM | > 10 µM |  |  | 
12 | Nc1cccc(CN2C(=O)C3=C(CCN(Cc4ccccc4)C3)N3CCN=C23)c1 [I/75] | > 0.1 µM | > 0.1 µM | 6.1 µM | 25 µM |  |  |  | 
13 | O=C1C2=C(CCN(Cc3ccc(F)cc3)C2)N2CCN=C2N1Cc1ccc(I)cc1 [I/55] | > 0.1 µM | > 0.1 µM | 0.76 µM |  | 1 µM |  |  | 
14 | O=C1C2=C(CCN(Cc3ccccc3F)C2)N2CCN=C2N1Cc1ccc(I)cc1 [I/54] |  |  | 1.8 µM |  | 2 µM |  |  | 
15 | Cc1ccccc1CN1C(=O)C2=C(CCN(CCc3cccc(F)c3)C2)N2CCN=C12 [I/45] |  |  | > 10 µM | > 10 µM | > 10 µM |  |  | 
16 | Cc1ccccc1CN1C(=O)C2=C(CCN(Cc3cccc(N=[N+]=[N-])c3)C2)N2CCN=C12 [I/103] | > 0.1 µM | > 0.1 µM | 0.27 µM | 25 µM |  |  |  | 
17 | 7-Benzyl-4-(4-(4-ferrocenyl-1H-1,2,3-triazol-1-yl)benzyl)-2,4,6,7,8,9-hexahydroimidazo[1,2-a]pyrido[3,4-e]pyrimidin-5(1H)-one [I/121] |  |  |  |  |  | 2.5 µM | > 0.1 µM | > 0.1 µM
18 | NCc1cccc(CN2CCC3=C(C2)C(=O)N(Cc2ccc(I)cc2)C2=NCCN23)c1 [I/59] | > 0.1 µM | > 0.1 µM | 0.66 µM |  |  |  |  | 
19 | [N-]=[N+]=Nc1cccc(CN2CCC3=C(C2)C(=O)N(Cc2ccc(I)cc2)C2=NCCN23)c1 [I/113] | < 0.1 µM | < 0.1 µM | 0.25 µM | 0.25 µM |  |  |  | 

Row | Molecule | IC50 ([1]; Homo sapiens, EBC-1, HTS) | IC50 ([2]; Homo sapiens, NCI-H2228, HTS) | IC50 [3] | IC50 ([4]; Homo sapiens, A2058, 72 h) | IC50 [5] | IC50 ([4]; alamarBlue, 72 h) | IC50 ([1]; HTS) | IC50 ([2]; HTS)
20 | O=C1C2=C(CCN(Cc3ccccc3)C2)N2CCN=C2N1CCc1cccc(F)c1 [I/44] |  |  | > 10 µM | > 10 µM | > 10 µM |  |  | 
21 | COc1cc(CN2C(=O)C3=C(CCN(Cc4ccc(N)cc4)C3)N3CCN=C23)cc(OC)c1OC [I/89] | > 0.1 µM | > 0.1 µM | 25 µM |  |  |  |  | 
22 | COc1cc(CN2C(=O)C3=C(CCN(Cc4ccc(N=[N+]=[N-])cc4)C3)N3CCN=C23)cc(OC)c1OC [I/116] | > 0.1 µM | > 0.1 µM |  |  |  |  |  | 
23 | O=C1C2=C(CCN(Cc3ccccc3)C2)N2CCN=C2N1CC1CCNCC1 [I/96] | > 0.1 µM | > 0.1 µM |  |  |  |  |  | 
24 | Cc1ccccc1CN1C(=O)C2=C(CCN(Cc3cccc(F)c3)C2)N2CCN=C12 [I/53] | > 0.1 µM | > 0.1 µM | 2 µM |  | 2 µM |  |  | 
25 | [N-]=[N+]=Nc1ccc(CN2CCC3=C(C2)C(=O)N(Cc2ccc(F)cc2)C2=NCCN23)cc1 [I/109] |  |  | 8.9 µM |  |  |  |  | 
26 | Cc1ccccc1CN1C(=O)C2=C(CCN(Cc3cc(C(F)(F)F)cc(C(F)(F)F)c3)C2)N2CCN=C12 [I/15] | > 0.1 µM | > 0.1 µM |  |  |  |  |  | 
27 | Cc1ccccc1CN1C(=O)C2=C(CCN(Cc3cccc(N)c3)C2)N2CCN=C12 [I/77] | > 0.1 µM | > 0.1 µM |  |  |  |  |  | 
28 | Cc1ccccc1CN1C(=O)C2=C(CCN(Cc3ccc(F)c(F)c3)C2)N2CCN=C12 [I/14] | > 0.1 µM | > 0.1 µM |  |  |  |  |  | 
29 | O=C1C2=C(CCN(Cc3ccccc3)C2)N2CCN=C2N1Cc1ccc(F)c(F)c1F [I/29] |  |  | 0.66 µM | > 10 µM | > 10 µM |  |  | 
30 | [N-]=[N+]=Nc1ccc(CN2C(=O)C3=C(CCN(Cc4ccccc4)C3)N3CCN=C23)cc1 [I/104] |  |  | 0.5 µM | 2.5 µM | 0.25 µM |  |  | 
31 | Nc1cccc(CN2CCC3=C(C2)C(=O)N(Cc2ccc(C(F)(F)F)cc2)C2=NCCN23)c1 [I/79] | > 0.1 µM | > 0.1 µM |  |  |  |  |  | 
32 | O=C1C2=C(CCN(Cc3cc(C(F)(F)F)cc(C(F)(F)F)c3)C2)N2CCN=C2N1Cc1ccc(C(F)(F)F)c(F)c1 [I/22] | > 0.1 µM | > 0.1 µM |  |  |  |  |  | 
33 | O=C1C2=C(CCN(Cc3ccccc3)C2)N2CCN=C2N1CC1CNC1 [I/90] | > 0.1 µM | > 0.1 µM |  |  |  |  |  | 
34 | [N-]=[N+]=Nc1ccc(CN2CCC3=C(C2)C(=O)N(Cc2ccc(N=[N+]=[N-])cc2)C2=NCCN23)cc1 [I/117] | > 0.1 µM | > 0.1 µM |  |  |  |  |  | 
35 | O=C1C2=C(CCN(CC3CCCN3)C2)N2CCN=C2N1Cc1ccc(F)cc1 (centres unmarked) [I/100] | > 0.1 µM | > 0.1 µM |  |  |  |  |  | 
36 | Cc1ccccc1CN1C(=O)C2=C(CCN(CC3CCNCC3)C2)N2CCN=C12 [I/94] | > 0.1 µM | > 0.1 µM |  |  |  |  |  | 
37 | O=C1C2=C(CCN(Cc3ccccc3)C2)N2CCN=C2N1Cc1ccccc1I [I/11] | > 0.1 µM | > 0.1 µM | > 10 µM | > 10 µM | > 10 µM |  |  | 

Reference: patent publication US20230295162A1 (EÖTVÖS LORÁND TUDOMÁNYEGYETEM, priority 2020, published 2023)
